Experiments:
Substance-K receptor = biological target: T1, Substance-K receptor (Homo sapiens, UniProt P21452); assay type: cell membranes, CHO, Membrane; further: in other assays of this panel Not Active means under 50% inhibition at 10 µM
T1 sequence (P21452 whole entry): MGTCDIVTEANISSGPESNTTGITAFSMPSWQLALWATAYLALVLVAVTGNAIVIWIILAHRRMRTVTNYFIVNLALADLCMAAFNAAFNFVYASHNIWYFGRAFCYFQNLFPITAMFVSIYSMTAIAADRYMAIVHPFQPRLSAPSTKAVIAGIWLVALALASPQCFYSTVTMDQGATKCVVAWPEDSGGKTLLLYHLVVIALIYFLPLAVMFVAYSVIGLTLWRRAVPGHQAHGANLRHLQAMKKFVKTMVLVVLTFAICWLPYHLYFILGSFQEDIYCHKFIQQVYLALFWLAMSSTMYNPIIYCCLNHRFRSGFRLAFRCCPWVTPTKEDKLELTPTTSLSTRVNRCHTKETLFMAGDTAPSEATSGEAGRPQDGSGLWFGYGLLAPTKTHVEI

[1] = DRUGMATRIX: Interleukin IL-1 radioligand binding (ligand: [125I] interleukin 1beta); assay type: cell membranes, Membrane; conditions: nih3t3; Not Active = under 50% inhibition at 10 µM
[2] = biological target: Epidermal growth factor receptor (Homo sapiens, UniProt P00533); test: DRUGMATRIX: Protein Tyrosine Kinase, EGF Receptor enzyme inhibition (substrate: Poly(Glu:Tyr)); assay type: cell-based, Insect cells; conditions: insect cells; Not Active = under 50% inhibition at 10 µM
Chain of Epidermal growth factor receptor (P00533 whole entry): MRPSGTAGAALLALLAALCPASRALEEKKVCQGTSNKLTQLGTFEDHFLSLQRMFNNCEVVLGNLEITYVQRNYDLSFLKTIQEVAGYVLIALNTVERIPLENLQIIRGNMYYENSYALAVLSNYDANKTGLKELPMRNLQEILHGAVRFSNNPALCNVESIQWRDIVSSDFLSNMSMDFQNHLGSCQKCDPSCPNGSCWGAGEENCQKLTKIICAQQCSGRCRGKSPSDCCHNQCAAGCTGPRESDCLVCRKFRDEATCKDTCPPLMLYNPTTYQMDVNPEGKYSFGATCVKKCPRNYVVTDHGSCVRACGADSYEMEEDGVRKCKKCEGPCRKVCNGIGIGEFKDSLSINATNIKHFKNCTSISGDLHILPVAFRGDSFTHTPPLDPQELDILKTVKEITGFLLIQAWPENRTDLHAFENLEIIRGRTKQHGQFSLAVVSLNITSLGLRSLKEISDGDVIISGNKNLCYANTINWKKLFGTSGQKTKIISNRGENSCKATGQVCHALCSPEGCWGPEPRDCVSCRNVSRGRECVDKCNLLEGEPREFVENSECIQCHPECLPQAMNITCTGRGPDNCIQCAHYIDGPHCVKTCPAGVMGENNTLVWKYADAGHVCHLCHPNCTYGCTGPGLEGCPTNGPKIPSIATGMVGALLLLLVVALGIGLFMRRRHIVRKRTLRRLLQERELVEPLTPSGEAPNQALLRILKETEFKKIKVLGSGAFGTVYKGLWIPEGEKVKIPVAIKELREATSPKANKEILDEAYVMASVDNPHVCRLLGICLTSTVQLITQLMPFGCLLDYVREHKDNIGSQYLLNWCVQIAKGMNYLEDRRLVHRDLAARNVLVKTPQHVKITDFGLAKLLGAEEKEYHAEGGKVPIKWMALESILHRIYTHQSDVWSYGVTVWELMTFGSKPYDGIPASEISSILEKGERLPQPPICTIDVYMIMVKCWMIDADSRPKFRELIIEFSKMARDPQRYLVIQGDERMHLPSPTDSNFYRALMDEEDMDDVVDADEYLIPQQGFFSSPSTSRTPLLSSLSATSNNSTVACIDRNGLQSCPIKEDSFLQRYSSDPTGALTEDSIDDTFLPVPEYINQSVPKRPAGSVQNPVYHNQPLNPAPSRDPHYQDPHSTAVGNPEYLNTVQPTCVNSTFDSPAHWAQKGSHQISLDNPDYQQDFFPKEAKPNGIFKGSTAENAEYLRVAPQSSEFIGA

[3] = biological target: T2, Amine oxidase [flavin-containing] A (Homo sapiens, UniProt P21397); test: DRUGMATRIX: Monoamine Oxidase MAO-A enzyme inhibition (substrate: Kynuramine); parameters: species or system BTI-TN-5B1-4; conditions: bti-tn-5b1-4; Not Active = under 50% inhibition at 10 µM
T2 sequence (P21397 whole entry): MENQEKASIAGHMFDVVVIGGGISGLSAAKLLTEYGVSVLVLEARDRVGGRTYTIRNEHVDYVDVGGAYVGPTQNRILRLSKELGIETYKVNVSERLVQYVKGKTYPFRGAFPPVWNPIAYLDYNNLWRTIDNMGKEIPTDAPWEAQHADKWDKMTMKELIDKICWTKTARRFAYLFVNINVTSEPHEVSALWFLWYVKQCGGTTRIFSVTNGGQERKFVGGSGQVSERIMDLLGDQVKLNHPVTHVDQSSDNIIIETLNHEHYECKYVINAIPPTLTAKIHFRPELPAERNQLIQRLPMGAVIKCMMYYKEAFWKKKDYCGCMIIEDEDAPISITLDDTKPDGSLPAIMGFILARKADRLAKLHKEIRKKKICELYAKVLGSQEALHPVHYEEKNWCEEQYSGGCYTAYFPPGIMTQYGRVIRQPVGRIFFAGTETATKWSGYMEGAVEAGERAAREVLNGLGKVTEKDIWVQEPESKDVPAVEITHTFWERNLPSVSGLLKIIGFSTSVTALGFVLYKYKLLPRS

Compound | IC50 (Substance-K receptor; cho) | IC50 [1] | Ki [1] | IC50 [2] | IC50 [3] | IC50 (Substance-K receptor; read-out: IC50) [nM] | Ki (Substance-K receptor; read-out: Ki) [nM]
COc1ccc(Cl)cc1C(=O)NCCc1ccc(S(=O)(=O)NC(=O)NC2CCCCC2)cc1 [GLYBURIDE] | Not Active | Not Active | Not Active | Not Active | Not Active |  | 
CCN1C[C@]2(COC)[C@H](O)C[C@H](OC)[C@@]34[C@@H]5C[C@@]6(O)[C@H](OC(=O)c7ccccc7)[C@@H]5[C@@](OC(C)=O)([C@@H]([C@H](OC)[C@H]23)[C@@H]14)[C@@H](O)[C@@H]6OC [ACONITINE] | Not Active | Not Active | Not Active | Not Active | Not Active |  | 
O=C(O)CCc1nc(-c2ccccc2)c(-c2ccccc2)o1 [OXAPROZIN] | Not Active | Not Active | Not Active | Not Active | Not Active |  | 
Cc1ccnc2c1NC(=O)c1cccnc1N2C1CC1 [NEVIRAPINE] | Not Active | Not Active | Not Active | Not Active | Not Active |  | 
Clc1cc(Cl)c(OCC#CI)cc1Cl [HALOPROGIN] |  | Not Active | Not Active | Not Active | Not Active | 1470 | 491
NC(=O)CN1CCCC1=O | Not Active | Not Active | Not Active | Not Active | Not Active |  | 
CO[C@H]1O[C@@H]2O[C@@]3(C)CC[C@H]4[C@H](C)CC[C@@H]([C@H]1C)[C@@]24OO3 | Not Active | Not Active | Not Active | Not Active | Not Active |  | 
CC12CCC(CC1)C(C)(C)O2 [EUCALYPTOL] | Not Active | Not Active | Not Active | Not Active | Not Active |  | 
NS(=O)(=O)c1cc(C(=O)O)c(NCc2ccco2)cc1Cl [FUROSEMIDE] | Not Active | Not Active | Not Active | Not Active | Not Active |  | 
CC(C)NCC(O)COc1ccc(CC(N)=O)cc1 (stereo unspecified) [ATENOLOL] | Not Active | Not Active | Not Active | Not Active | Not Active |  | 
Oc1ncnc2[nH]ncc12 [ALLOPURINOL] | Not Active | Not Active | Not Active | Not Active | Not Active |  | 
NCC(CC(=O)O)c1ccc(Cl)cc1 (stereo unspecified) [BACLOFEN] | Not Active | Not Active | Not Active | Not Active | Not Active |  | 
O=C1CN(/N=C/c2ccc([N+](=O)[O-])o2)C(=O)N1 [NITROFURANTOIN] | Not Active | Not Active | Not Active | Not Active | Not Active |  | 
CC12CCC(CC1=O)C2(C)C (stereo unspecified) [CAMPHOR] | Not Active | Not Active | Not Active | Not Active | Not Active |  | 
Cc1c(N)nc([C@H](CC(N)=O)NC[C@H](N)C(N)=O)nc1C(=O)N[C@H](C(=O)N[C@H](C)[C@@H](O)[C@H](C)C(=O)N[C@H](C(=O)NCCc1nc(-c2nc(C(=O)NCCC[S+](C)C)cs2)cs1)[C@@H](C)O)[C@@H](O[C@@H]1O[C@@H](CO)[C@@H](O)[C@H](O)[C@@H]1O[C@H]1O[C@H](CO)[C@@H](O)[C@H](OC(N)=O)[C@@H]1O)c1c[nH]cn1.[Br-] [BLEOMYCIN A2] | Not Active | Not Active | Not Active | Not Active | Not Active |  | 
CC(CN1c2ccccc2Sc2ccccc21)N(C)C (stereo unspecified) [PROMETHAZINE] | Not Active | Not Active | Not Active | Not Active | Not Active |  | 
NC(N)=Nc1nc(CSCCC(N)=NS(N)(=O)=O)cs1 [FAMOTIDINE] | Not Active | Not Active | Not Active | Not Active | Not Active |  | 
c1ccc2sc(SSc3nc4ccccc4s3)nc2c1 [BENZOTHIAZYL DISULFIDE] | Not Active | Not Active | Not Active | Not Active | Not Active |  | 
Nc1ccc(Cc2ccc(N)cc2)cc1 | Not Active | Not Active | Not Active | Not Active | Not Active |  | 
CC[C@H]1OC(=O)[C@H](C)[C@@H](O[C@H]2C[C@@](C)(OC)[C@@H](O)[C@H](C)O2)[C@H](C)[C@@H](O[C@@H]2O[C@H](C)C[C@H](N(C)C)[C@H]2O)[C@](C)(O)C[C@@H](C)C(=O)[C@H](C)[C@@H](O)[C@]1(C)O [ERYTHROMYCIN] | Not Active | Not Active | Not Active | Not Active | Not Active |  | 
Nc1nc(N)c2nc(CNc3ccc(C(=O)N[C@@H](CCC(=O)O)C(=O)O)cc3)cnc2n1 [AMINOPTERIN] | Not Active | Not Active | Not Active | Not Active | Not Active |  | 
OC[C@H]1O[C@@H]2O[C@H]3[C@H](O)[C@@H](O)[C@@H](O[C@H]4[C@H](O)[C@@H](O)[C@@H](O[C@H]5[C@H](O)[C@@H](O)[C@@H](O[C@H]6[C@H](O)[C@@H](O)[C@@H](O[C@H]7[C@H](O)[C@@H](O)[C@@H](O[C@H]8[C@H](O)[C@@H](O)[C@@H](O[C@H]1[C@H](O)[C@H]2O)O[C@@H]8CO)O[C@@H]7CO)O[C@@H]6CO)O[C@@H]5CO)O[C@@H]4CO)O[C@@H]3CO [BETADEX] | Not Active | Not Active | Not Active | Not Active | Not Active |  | 
COc1ccc(C[C@H](N)C(=O)N[C@H]2[C@@H](O)[C@H](n3cnc4c(N(C)C)ncnc43)O[C@@H]2CO)cc1 [PUROMYCIN] | Not Active | Not Active | Not Active | Not Active | Not Active |  | 
O=C(O)c1ccccc1 [BENZOIC ACID] | Not Active | Not Active | Not Active | Not Active | Not Active |  | 
C[C@H]1C[C@H]2[C@@H]3CCC4=CC(=O)C=C[C@]4(C)[C@@]3(F)[C@@H](O)C[C@]2(C)[C@@]1(O)C(=O)CO [BETAMETHASONE] | Not Active | Not Active | Not Active | Not Active | Not Active |  | 
Oc1ccccc1 [PHENOL] | Not Active | Not Active | Not Active | Not Active | Not Active |  | 
C[C@@H]1[C@H](O)[C@@H](C)/C=C/C=C/C=C/C=C/C=C/C=C/C=C/[C@H](O[C@@H]2O[C@H](C)[C@@H](O)[C@H](N)[C@@H]2O)C[C@@H]2O[C@](O)(C[C@@H](O)C[C@@H](O)[C@H](O)CC[C@@H](O)C[C@@H](O)CC(=O)O[C@H]1C)C[C@H](O)[C@H]2C(=O)O [AMPHOTERICIN B] | Not Active | Not Active | Not Active | Not Active | Not Active |  | 
COc1cc(NC(C)CCCN)c2ncccc2c1 (stereo unspecified) [PRIMAQUINE] | Not Active | Not Active | Not Active | Not Active | Not Active |  | 
CNC[C@H](O)c1ccc(O)c(O)c1 [EPINEPHRINE] | Not Active | Not Active | Not Active | Not Active | Not Active |  | 
CCN1CCN(C(=O)N[C@@H](C(=O)N[C@@H]2C(=O)N3[C@@H]2SC(C)(C)[C@@H]3C(=O)O)c2ccccc2)C(=O)C1=O [PIPERACILLIN] | Not Active | Not Active | Not Active | Not Active | Not Active |  | 

Reference: ChEMBL document CHEMBL1909046, “DrugMatrix in vitro pharmacology data”
